From US20110218103A1, “Fluoroalkyl-substituted 2-amidobenzimidazoles” (BAYER CROPSCIENCE AG, priority 2010, published 2011)

Legend:
Brassica napus (BRSNS) = test: Drought stress test on crop plants, spray application in greenhouse, visual damage rating; type: in vivo; details: mean of three results
Description: Seeds of monocotyledonous and dicotyledonous crop plants were placed in sandy loam in wood-fiber pots, covered with soil and cultivated in a greenhouse under good growth conditions. The test plants were treated at the early leaf stage (BBCH10-BBCH13). To ensure uniform water supply before commencement of stress, the potted plants were supplied with the maximum amount of water immediately beforehand by dam irrigation and, after application, transferred in plastic inserts in order to prevent subsequent, excessively rapid drying. The inventive compounds, formulated in the form of wettable powders (WP), wettable granules (WG), suspension concentrates (SC) or emulsion concentrates (EC), were sprayed onto the green parts of the plants as an aqueous suspension at an equivalent water application rate of 600 l/ha with addition of 0.2% wetting agent (agrotin). Substance application was followed immediately by stress treatment of the plants (cold or drought stress). For cold stress treatment, the plants were kept under the following controlled conditions: Drought stress was induced by gradual drying out under the following conditions: “day”: 14 hours with illumination at 26° C. “night”: 10 hours without illumination at 18° C. The duration of the respective stress phases was guided mainly by the state of the untreated, stressed control plants and thus varies from crop to crop. It was ended (by re-irrigating or transfer to a greenhouse with good growth conditions) as soon as irreversible damage is observed on the untreated, stressed control plants. In the case of dicotyledonous crops, for example oilseed rape and soya, the duration of the drought stress phase was between 3 and 5 days, in the case of monocotyledonous crops, for example wheat, barley or corn, between 6 and 10 days. The duration of the cold stress phase varied between 12 and 14 days. The end of the stress phase was followed by an approx. 5-7-day recovery phase, during which the plants were once again kept under good growth conditions in a greenhouse. In order to rule out any influence of the effects observed by any fungicidal action of the test compounds, it was additionally ensured that the tests proceed without fungal infection and without infection pressure. After the recovery phase had ended, the intensities of damage were rated visually compared to untreated, unstressed controls of the same age (in the case of drought stress) or the same growth stage (in the case of cold stress). The intensity of damage was first assessed as a percentage (100%=plants have died, 0%=like control plants). These values were then used to calculate the efficacy of the test compounds (=percentage reduction in the intensity of damage as a result of substance application) by the following formula: [formula] EF: efficacy (%) DVus: damage value of the untreated, stressed control DVts: damage value of the plants treated with test compound The tables below list mean values in each case from three results of the same test. Effects of selected compounds of the formula (I) under drought stress: BRSNS=Brassica napus

Zea mays (ZEAMX) = test: as above; type: in vivo; details: 25 g/ha, mean of three results
Description: Seeds of monocotyledonous and dicotyledonous crop plants were placed in sandy loam in wood-fiber pots, covered with soil and cultivated in a greenhouse under good growth conditions. The test plants were treated at the early leaf stage (BBCH10-BBCH13). To ensure uniform water supply before commencement of stress, the potted plants were supplied with the maximum amount of water immediately beforehand by dam irrigation and, after application, transferred in plastic inserts in order to prevent subsequent, excessively rapid drying. The inventive compounds, formulated in the form of wettable powders (WP), wettable granules (WG), suspension concentrates (SC) or emulsion concentrates (EC), were sprayed onto the green parts of the plants as an aqueous suspension at an equivalent water application rate of 600 l/ha with addition of 0.2% wetting agent (agrotin). Substance application was followed immediately by stress treatment of the plants (cold or drought stress). For cold stress treatment, the plants were kept under the following controlled conditions: Drought stress was induced by gradual drying out under the following conditions: “day”: 14 hours with illumination at 26° C. “night”: 10 hours without illumination at 18° C. The duration of the respective stress phases was guided mainly by the state of the untreated, stressed control plants and thus varies from crop to crop. It was ended (by re-irrigating or transfer to a greenhouse with good growth conditions) as soon as irreversible damage is observed on the untreated, stressed control plants. In the case of dicotyledonous crops, for example oilseed rape and soya, the duration of the drought stress phase was between 3 and 5 days, in the case of monocotyledonous crops, for example wheat, barley or corn, between 6 and 10 days. The duration of the cold stress phase varied between 12 and 14 days. The end of the stress phase was followed by an approx. 5-7-day recovery phase, during which the plants were once again kept under good growth conditions in a greenhouse. In order to rule out any influence of the effects observed by any fungicidal action of the test compounds, it was additionally ensured that the tests proceed without fungal infection and without infection pressure. After the recovery phase had ended, the intensities of damage were rated visually compared to untreated, unstressed controls of the same age (in the case of drought stress) or the same growth stage (in the case of cold stress). The intensity of damage was first assessed as a percentage (100%=plants have died, 0%=like control plants). These values were then used to calculate the efficacy of the test compounds (=percentage reduction in the intensity of damage as a result of substance application) by the following formula: [formula] EF: efficacy (%) DVus: damage value of the untreated, stressed control DVts: damage value of the plants treated with test compound The tables below list mean values in each case from three results of the same test. Effects of selected compounds of the formula (I) under drought stress: ZEAMX=Zea mays

Structure (SMILES)	EF (BRSNS), efficacy = percentage reduction in the intensity of damage (Brassica napus (BRSNS); 25 g/ha)	EF (ZEAMX), efficacy = percentage reduction in the intensity of damage (Zea mays (ZEAMX))	EF (BRSNS), efficacy = percentage reduction in the intensity of damage (Brassica napus (BRSNS); 50 g/ha)
NC(=O)c1cccc2[nH]c(C(F)(F)C(F)(F)F)nc12 [1-2, 2-(pentafluoroethyl)-1H-benzimidazole-4-carboxamide]	>5%	>5%	–
NC(=O)c1cccc2[nH]c(C(F)(F)C(F)(F)C(F)(F)F)nc12 [1-17]	–	>5%	>5%
